Drawing on PubChem BioAssay AID651914 (NMMLSC, 2012), this text covers EC50 for 3 compounds.

This assay concerns AM2.2-GPR32 FAP cells, fluorogen binding, flow cytometry MCF. Kind of assay: fluorogen binding to FAP-tagged GPR32, dose response, counter-screen for beta2AR agonist internalization project, AM2.2 cells, flow cytometry, powder set 5 (AID 651914). On the technique in general: Counterscreens check selectivity or assay interference.
For `CCC(=O)Nc1ccc(S(=O)(=O)N2CCCCC2CC)cc1` (stereo not drawn), the concentration for a half-maximal effect (EC50) (commonly the concentration that produces a half-maximal response) was 7.5 nM. With `Cc1cccc(C(=O)Nc2ccc(S(=O)(=O)N3CCCCC3C)cc2)c1` (stereo not drawn), the 50% effective concentration (EC50) was 2900 nM. The value for `CN(CC(=O)N1CCN(c2ccc(F)cc2)CC1)S(=O)(=O)c1ccc(Br)cc1` was 410 nM.
